Source: US20260137084A1, “NOVALURON MIXTURES FOR EFFICIENT INSECTICIDAL CONTROLS” (ADAMA MAKHTESHIM LTD., priority 2022, published 2026)

Key:
[1] = test system: S. frugiperda; assay: Insecticidal efficacy (% control) and Colby synergy against S. frugiperda; format: in vivo, Spodoptera frugiperda; details: 120 hours after treatment
Method: (§1) Different concentrations of each of the active ingredients are applied to different species of insects. The percent controls are determined sometime after treatment.
(§2) Colby's method, is used to determine if synergy exists for a combination of active ingredients. According to Colby, the expected action (E) of active ingredients A+B is:
(§3) [formula] • where E=expected efficacy, A and B=the efficacy of two active ingredients A and B at a given dose.
(§4) When the percentage of control observed (O) for the combination is greater than the expected (E) percentage, there is a synergistic effect. The synergism ratio (R) is calculated as the ratio between the […].
(§5) The insecticidal compounds A (Novaluron) and B (mix partner) are formulated as equivalent compositions to eliminate the effects of differing formulation inerts on biological activity. Efficacy of the insecticidal compositions is evaluated with reference to a scale of 0% to 100% in comparison with untreated control plots. 0 means no damage and 100 means complete destruction of the harmful pests.
(§6) The experiments were conducted by applying commercially available formulations of Novaluron and other mixture partners, alone or with their tank-mixed compositions with the same weight ratio. The compositions were diluted with water or some other suitable solvents to the stated concentration of the active compounds.
(§7) Each formulation with active ingredient is diluted with water or other suitable solvent(s) to the ppm (parts per million) level and biological efficacy trials on pests are conducted.

[2] = test system: H. armigera; assay: Insecticidal efficacy (% control) and Colby synergy against H. armigera; format: in vivo, Helicoverpa armigera; details: 120 hours after treatment
Method: as §1, §2, §3, §4, §5, §6, §7

With `Cc1cccn2c(=O)c(-c3cc(Cl)cc(Cl)c3)c([O-])[n+](Cc3cnc(Cl)s3)c12` [Dicloromezotiaz] the “Observed % control (O)” value ([1]; Rate 1 ppm) was 0%, the “Observed % control (O)” value ([1]; Rate 2.5 ppm) was 40% and the “Observed % control (O)” value ([1]; Rate 5 ppm) was 20%. The “Observed % control (O)” value ([2]; Rate 40 ppm) was 40%.

In the case of `CCN(C(=O)CCSCCC(F)(F)F)c1cn(-c2cccnc2)nc1Cl` [Tyclopyrazoflor], the “Observed % control (O)” value ([1]; Rate 5 ppm) was 20% and the “Observed % control (O)” value ([2]; Rate 160 ppm) was 20%.

With `O=C(N=c1ccccn1Cc1ccc(Cl)nc1)C(F)(F)F` [Flupyrimin] the “Observed % control (O)” value ([1]; Rate 10 ppm) was 10%.

For `CCN1OCC(NC(=O)c2ccc(C3=NOC(c4cc(Cl)c(F)c(Cl)c4)(C(F)(F)F)C3)cc2C)C1=O` (centres unmarked) [Isocycloseram], the “Observed % control (O)” value ([1]; Rate 5 ppm) was 20%, the “Observed % control (O)” value ([1]; Rate 10 ppm) was 20% and the “Observed % control (O)” value ([2]; Rate 10 ppm) was 20%. For the same molecule, the “Observed % control (O)” value ([2]; Rate 20 ppm) was 50%.

In the case of `O=C(NC(=O)c1c(F)cccc1F)Nc1ccc(OC(F)(F)C(F)OC(F)(F)F)c(Cl)c1` (single isomer, unassigned; (+)) [Novaluron, (+)-1-[3-chloro-4-(1,1,2-trifluoro-2-trifluoromethoxyethoxy)phenyl]-3-(2,6-difluorobenzoyl) urea], the “Observed % control (O)” value ([1]; Rate 0.01 ppm) was 16%, the “Observed % control (O)” value ([2]; Rate 0.1 ppm) was 20% and the “Observed % control (O)” value ([2]; Rate 0.2 ppm) was 20%.

Nicofluprole was tested, and the “Observed % control (O)” value ([1]; Rate 0.5 ppm) was 20%, the “Observed % control (O)” value ([1]; Rate 1 ppm) was 40% and the “Observed % control (O)” value ([2]; Rate 5 ppm) was 30%.
